From PubChem BioAssay (NCI) come the findings set out here.

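Protocol summary: plate cells (96-well), add compound at 5 concentrations, incubate 48 h, interpolate endpoints linearly. TGI denotes the concentration required for complete inhibition of growth.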

Common to all, as to experiment: NCI tumour cell line growth inhibition, 48 h
Test [1] relates to 786-0 renal.
Test [2] concerns CAKI-1 renal.
The subject of test [3] is CCRF-CEM leukemia.
In test [4] the test system is DU-145 prostate.
Test [5] deals with HS 578T breast.
In test [6] the test system is K-562 leukemia.
Test [7] relates to KM12 colon.
Test [8] has as its system MALME-3M melanoma.
Test [9] concerns NCI-H460 lung.
For test [10], the system named is NCI/ADR-RES ovarian.
The subject of test [11] is OVCAR-5 ovarian.
The subject of test [12] is PC-3 prostate.
Test [13] has as its system RXF 393 renal.
For test [14], the system named is SF-295 CNS.
Test [15] deals with SF-539 CNS.
For test [16], the system named is SK-MEL-2 melanoma.
Test [17] concerns SN12C renal.
In test [18] the test system is T-47D breast.
The subject of test [19] is U251 CNS.
For test [20], the system named is UO-31 renal.

Regarding `Nc1nc(N)c(C2=CCNCC2)c(=O)[nH]1`, the TGI in [1], in test [2], in test [3], in test [4], in test [5] and in [6] was over 100 µM throughout. In addition, the TGI in test [7], in test [8], in test [9], in [10], in test [11] and in test [12] was over 100 µM throughout. Further, the TGI in test [13], in test [14], in test [15], in [16], in test [17] and in test [18] was over 100 µM in each case. In addition, the TGI in test [19] and in test [20] was over 100 µM throughout.
For the molecule `Nc1nc(Cl)c2ncn(Cc3ccc(CCl)cc3)c2n1`, the TGI in test [1] is 93.9 µM; in [2], 9.87 µM; in [3], over 100 µM; in test [4], 19.5 µM; in [5] it was over 100 µM; in test [6], over 100 µM. In addition, the TGI in test [7] was 22.9 µM; in test [8], 27.3 µM; in test [9], 20 µM; in [10], 26.7 µM; in test [11] it was 14.9 µM; in [12], 25 µM. For the same molecule, the TGI in test [13] came out at 7.26 µM; in test [14], 27.8 µM; in [15] it was 9.89 µM; in [16], 29.1 µM; in [17], 27.1 µM; in [18], 40.1 µM. Besides, the figures for the TGI in [19] and in test [20] were 12 µM and 25.4 µM, respectively.
`O=c1[nH]/c(=C/c2ccc(OCc3ccccc3)cn2)c(=O)[nH]/c1=C/c1ccc([N+](=O)[O-])cc1`: the TGI in [1] was over 100 µM; in test [2], over 73.1 µM; in [3] it was over 100 µM; in [4], over 100 µM; in test [5], over 78.4 µM; in [6], over 100 µM. Besides, the TGI in [7], in test [8], in [9], in test [10], in test [11] and in test [12] was over 100 µM each time. Also, the TGI in test [13], in test [14], in test [15], in [16], in test [17] and in test [18] was over 100 µM throughout. Also, the TGI in test [19] and in test [20] was over 100 µM in each case.
In the case of `O=C1c2ccccc2C(=O)[C@@]23O[C@@]12C1(Oc2cccc4cccc(c24)O1)[C@@H]1O[C@@H]1[C@@H]3O`, the TGI was 11.6 µM in test [1]; 24.5 µM in [2]; over 38.7 µM in [3]; 33.2 µM in test [4]; 51.8 µM in [5]; over 29.8 µM in [6]. The TGI in test [7] was found to be 27.3 µM; in test [8], 30.3 µM; in test [9] it was 23.6 µM; in test [10] it was 15.7 µM; in test [11], 39.3 µM; in test [12], 34.3 µM. In addition, the TGI in [13] worked out at 10.4 µM; in test [14], 26 µM; in test [15] it was 9.56 µM; in test [16], 42.1 µM; in test [17], 26.1 µM; in test [18], 29.8 µM. Moreover, the TGI in [19] was over 47.6 µM; in test [20], 24.4 µM.
Consider `CCN1CCN(c2ccc(Nc3ccnc4ccc5c(nnn5C)c34)cc2)CC1`, for which the TGI is 15.9 µM in [1]; 21.7 µM in [2]; 54.7 µM in [3]; 18.3 µM in [4]; 31.9 µM in test [5]; 28.2 µM in [6]. Besides, the TGI is 12.4 µM in [7]; 23.6 µM in test [8]; 11.9 µM in test [9]; 36.7 µM in [10]; 24.2 µM in test [11]; 17.7 µM in test [12]. The TGI in test [13] amounted to 23.4 µM; in test [14], 22.7 µM; in test [15] it was 11.1 µM; in test [16] it was 24.8 µM; in [17] it was 16 µM; in test [18], 38.3 µM. Moreover, the values for the TGI in test [19] and in [20] were 19 µM and 25.7 µM, respectively.
As to `CCOP(=O)(CCCC(O)CNc1cc(Cl)nc(N)n1)OCC` (stereo not given), the TGI in test [1], in [2], in [3], in test [4], in [5] and in test [6] was over 100 µM throughout. Also, the TGI in test [7], in test [8], in test [9], in [10], in test [11] and in test [12] was over 100 µM in each case. The TGI in test [13], in test [14], in test [15], in test [16], in test [17] and in [18] was over 100 µM each time. The TGI in [19] and in [20] was over 100 µM in each case.
`Oc1cc(Br)cc2cccnc12`: the TGI in test [1] is 38 µM; in test [2], 39 µM; in test [3], 4.61 µM; in [4], over 100 µM; in [5] it was over 100 µM; in [6], 8.08 µM. For the same molecule, the TGI was over 100 µM in [7]; 47 µM in test [8]; 17 µM in [9]; 8.26 µM in test [10]; over 100 µM in [11]; over 100 µM in test [12]. Moreover, the TGI was 30.4 µM in [13]; 32.7 µM in [14]; over 45.1 µM in test [15]; over 100 µM in test [16]; over 55.6 µM in test [17]; 25.4 µM in [18]. In addition, the TGI in [19] was over 58.4 µM; in test [20], 35.9 µM.
